Test results: paper PMC6825211 (Nature Communications, 2019)
Where “and” joins values, the source holds several entries; their conditions need not be identical. Identical values can stand only once.

Experiments:
PRKACA = PRKACA (Homo sapiens, UniProt P17612); experiment: Nanosyn kinase profiling, mobility shift assay; details: read-out: % inhibition by neratinib
[1] = system: panel of 50 serine, threonine, and tyrosine kinases; experiment: Nanosyn panel of 50 biochemical kinase assays; details: 10 µM, of 50 kinases
[2] = system: isolated islets from WT mice; experiment: β-cell apoptosis (TUNEL/insulin) under diabetogenic conditions, WT islets
PAK5 = target: T1, PAK5 (Homo sapiens, UniProt Q9P286); experiment: Nanosyn kinase profiling, mobility shift assay; type: biochemical; details: 12 points dose response
T1 construct: Nanosyn (assay service)
Description: (§1) inhibition was determined for each assay.

PAK3 = PAK3 (Homo sapiens, UniProt O75914); experiment: Nanosyn kinase profiling, mobility shift assay; type: biochemical; details: 12 points dose response
Description: as §1

MST3 = target: T2, MST3 (Homo sapiens, UniProt Q9Y6E0); experiment: Nanosyn kinase profiling, mobility shift assay; type: biochemical; details: 12 points dose response
T2 construct: Nanosyn (assay service)
Description: as §1

CHEK2 = target: T3, CHEK2 (Homo sapiens, UniProt O96017); experiment: Nanosyn kinase profiling, mobility shift assay; type: biochemical; details: 12 points dose response
T3 construct: Nanosyn (assay service)
Description: as §1

AXL = target: T4, AXL (Homo sapiens, UniProt P30530); experiment: Nanosyn kinase profiling, mobility shift assay; type: biochemical; details: 12 points dose response
T4 construct: Nanosyn (assay service)
Description: as §1

PAK6 = target: T5, PAK6 (Homo sapiens, UniProt Q9NQU5); experiment: Nanosyn kinase profiling, mobility shift assay; type: biochemical; details: 12 points dose response
T5 construct: Nanosyn (assay service)
Description: as §1

HIPK1 = target: T6, HIPK1 (Homo sapiens, UniProt Q86Z02); experiment: Nanosyn kinase profiling, mobility shift assay; type: biochemical; details: 12 points dose response
T6 construct: Nanosyn (assay service)
Description: as §1

PHK1 = target: T7, PHK1 (Homo sapiens, UniProt Q16816); experiment: Nanosyn kinase profiling, mobility shift assay; type: biochemical; details: 12 points dose response
T7 construct: Nanosyn (assay service)
Description: as §1

MAP4K2 = MAP4K2 (Homo sapiens, UniProt Q12851); experiment: Nanosyn kinase profiling, mobility shift assay; type: biochemical; details: 12 points dose response
Description: as §1

MST1 = target: T8, MST1 (Homo sapiens, UniProt Q13043); experiment: LanthaScreen Eu kinase binding assay (HTS and dose response); set-up: purchased ThermoFisher; details: three experiments
T8 sequence (Q13043 1-487): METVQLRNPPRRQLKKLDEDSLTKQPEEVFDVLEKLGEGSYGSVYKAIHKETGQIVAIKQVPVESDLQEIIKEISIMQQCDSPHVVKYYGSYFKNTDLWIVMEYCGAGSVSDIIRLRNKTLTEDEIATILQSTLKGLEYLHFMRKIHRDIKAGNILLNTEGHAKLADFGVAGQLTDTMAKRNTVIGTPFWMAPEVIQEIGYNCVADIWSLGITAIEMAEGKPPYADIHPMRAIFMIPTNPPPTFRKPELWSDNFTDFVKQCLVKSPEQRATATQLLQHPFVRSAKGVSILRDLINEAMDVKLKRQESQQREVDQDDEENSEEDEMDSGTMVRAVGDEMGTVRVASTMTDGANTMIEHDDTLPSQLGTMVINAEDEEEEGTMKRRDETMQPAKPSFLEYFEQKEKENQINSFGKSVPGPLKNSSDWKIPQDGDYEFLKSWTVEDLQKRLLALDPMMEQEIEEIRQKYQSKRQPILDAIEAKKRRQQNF
Description: A total of 39 hits were selected for 9-point dose response confirmation in triplicate, starting at 1 μM followed by 1:5 serial dilution.
Compounds in 1000× DMSO stock solution were dispensed by using Echo555 liquid dispensing system (Labcyte, CA) to 1536-well microplate (Corning, NY). Kinase buffer A (ThermoFisher, MA) was prepared and added to each well. […] Each reagent was added to the microplate in equal volume.

[3] = system: obese diabetic Lepr db/db mice; experiment: db/db model: insulin secretion during ipGTT; type: in vivo, mouse; set-up: GSIS: unit not given here
Excerpt: Data are representative of six mice per group (n = 6 for (a–f)). g–j Mice were killed at day 31. g β-cell mass (given as percentage of the whole pancreatic section from ten sections spanning the width of the pancreas; n = 5 mice/group) and quantitative analyses from triple stainings for (h) TUNEL, (i) Ki67, (j) pHH3, and (k) nuclear PDX1 expression, insulin, and DAPI expressed as percentage of TUNEL-, Ki67-, pHH3-, or nuclear PDX1-positive β-cells ± SEM. An average number of 13667 (h), 5937 (i), 7108 (j), or 4330 (k) β-cells were counted from n = 3–5 (h, i, k) or n = 5–6 (j) mice/group.
For intraperitoneal glucose tolerance tests, mice were fasted 12 h overnight and injected i.p. with glucose (40%; B.Braun, Melsungen, Germany) at a dose of 1 g/kg body weight. Blood samples were obtained at time points 0, 15, 30, 60, 90, and 120 min for glucose measurements by using a Glucometer. For i.p. insulin tolerance tests, mice were injected with 0.75 U/kg body weight recombinant human insulin (Novolin, Novo Nordisk) after 4–5-h fasting, and glucose concentration was determined with the Glucometer. Insulin secretion was measured before (0 min) and after (15 and 30 min) i.p. injection of glucose (2 g/kg) and measured by using ultrasensitive mouse Elisa kit (ALPCO Diagnostics, Salem, NH).

PYK2 = PYK2 (Homo sapiens, UniProt Q14289); experiment: Nanosyn kinase profiling, mobility shift assay; details: read-out: % inhibition by neratinib
Sequence of PYK2 (Q14289 whole entry): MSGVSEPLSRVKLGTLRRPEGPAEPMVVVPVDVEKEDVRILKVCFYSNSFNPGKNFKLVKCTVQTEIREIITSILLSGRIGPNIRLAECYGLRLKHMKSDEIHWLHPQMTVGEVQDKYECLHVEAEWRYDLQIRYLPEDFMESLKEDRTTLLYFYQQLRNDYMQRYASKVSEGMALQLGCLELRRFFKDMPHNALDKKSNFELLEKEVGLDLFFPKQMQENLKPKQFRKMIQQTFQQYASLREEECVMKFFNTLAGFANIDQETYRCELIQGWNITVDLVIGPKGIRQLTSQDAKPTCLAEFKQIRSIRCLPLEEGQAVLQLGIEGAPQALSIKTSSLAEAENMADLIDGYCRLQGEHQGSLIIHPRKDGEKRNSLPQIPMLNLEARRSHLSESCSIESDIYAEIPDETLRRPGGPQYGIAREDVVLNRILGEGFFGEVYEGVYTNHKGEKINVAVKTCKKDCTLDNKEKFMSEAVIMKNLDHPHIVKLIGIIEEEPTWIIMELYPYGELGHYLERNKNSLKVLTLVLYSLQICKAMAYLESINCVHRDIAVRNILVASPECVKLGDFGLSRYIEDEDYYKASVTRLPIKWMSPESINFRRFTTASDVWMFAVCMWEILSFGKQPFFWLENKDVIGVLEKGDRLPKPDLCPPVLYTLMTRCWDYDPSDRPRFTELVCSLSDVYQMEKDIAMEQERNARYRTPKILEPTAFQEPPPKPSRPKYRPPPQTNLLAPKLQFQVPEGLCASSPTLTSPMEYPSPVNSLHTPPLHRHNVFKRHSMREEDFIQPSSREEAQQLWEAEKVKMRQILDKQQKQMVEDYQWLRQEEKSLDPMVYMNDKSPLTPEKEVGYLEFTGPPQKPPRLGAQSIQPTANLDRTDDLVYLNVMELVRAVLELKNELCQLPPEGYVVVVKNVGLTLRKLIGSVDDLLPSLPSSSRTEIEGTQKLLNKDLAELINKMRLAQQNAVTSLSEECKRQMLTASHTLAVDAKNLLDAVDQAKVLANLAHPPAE

T6 sequence (Q86Z02 whole entry, species assumed): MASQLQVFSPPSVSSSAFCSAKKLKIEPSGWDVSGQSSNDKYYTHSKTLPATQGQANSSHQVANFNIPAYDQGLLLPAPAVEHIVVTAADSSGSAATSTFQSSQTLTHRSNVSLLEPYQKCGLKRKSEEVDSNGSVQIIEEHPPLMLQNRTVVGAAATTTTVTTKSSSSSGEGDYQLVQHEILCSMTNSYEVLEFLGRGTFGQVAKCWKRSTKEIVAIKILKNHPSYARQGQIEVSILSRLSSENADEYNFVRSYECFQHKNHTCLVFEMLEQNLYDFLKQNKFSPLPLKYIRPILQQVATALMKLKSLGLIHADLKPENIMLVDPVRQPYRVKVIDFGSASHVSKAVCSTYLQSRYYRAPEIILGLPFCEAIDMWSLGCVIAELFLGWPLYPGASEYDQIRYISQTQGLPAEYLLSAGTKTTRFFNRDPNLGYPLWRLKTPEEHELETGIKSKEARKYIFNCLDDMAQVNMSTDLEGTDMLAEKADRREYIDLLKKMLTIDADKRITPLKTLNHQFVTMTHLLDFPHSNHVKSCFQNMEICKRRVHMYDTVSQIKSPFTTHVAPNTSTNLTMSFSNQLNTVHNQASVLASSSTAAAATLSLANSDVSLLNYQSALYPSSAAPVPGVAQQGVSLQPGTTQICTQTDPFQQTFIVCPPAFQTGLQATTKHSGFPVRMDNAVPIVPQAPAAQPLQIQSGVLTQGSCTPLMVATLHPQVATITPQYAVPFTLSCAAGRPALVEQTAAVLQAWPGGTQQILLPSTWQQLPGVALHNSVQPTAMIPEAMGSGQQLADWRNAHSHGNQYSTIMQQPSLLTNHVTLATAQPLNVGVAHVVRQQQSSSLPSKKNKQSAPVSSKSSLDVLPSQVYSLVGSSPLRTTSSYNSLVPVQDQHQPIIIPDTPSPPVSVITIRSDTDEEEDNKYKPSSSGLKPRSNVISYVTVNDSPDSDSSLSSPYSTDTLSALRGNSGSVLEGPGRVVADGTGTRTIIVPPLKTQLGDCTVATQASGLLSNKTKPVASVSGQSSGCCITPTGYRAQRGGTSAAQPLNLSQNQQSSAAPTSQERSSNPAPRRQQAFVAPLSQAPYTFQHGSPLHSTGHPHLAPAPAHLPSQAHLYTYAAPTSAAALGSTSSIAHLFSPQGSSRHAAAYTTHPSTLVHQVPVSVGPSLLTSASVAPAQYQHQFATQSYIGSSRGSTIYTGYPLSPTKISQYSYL
T5 sequence (Q9NQU5 whole entry, species assumed): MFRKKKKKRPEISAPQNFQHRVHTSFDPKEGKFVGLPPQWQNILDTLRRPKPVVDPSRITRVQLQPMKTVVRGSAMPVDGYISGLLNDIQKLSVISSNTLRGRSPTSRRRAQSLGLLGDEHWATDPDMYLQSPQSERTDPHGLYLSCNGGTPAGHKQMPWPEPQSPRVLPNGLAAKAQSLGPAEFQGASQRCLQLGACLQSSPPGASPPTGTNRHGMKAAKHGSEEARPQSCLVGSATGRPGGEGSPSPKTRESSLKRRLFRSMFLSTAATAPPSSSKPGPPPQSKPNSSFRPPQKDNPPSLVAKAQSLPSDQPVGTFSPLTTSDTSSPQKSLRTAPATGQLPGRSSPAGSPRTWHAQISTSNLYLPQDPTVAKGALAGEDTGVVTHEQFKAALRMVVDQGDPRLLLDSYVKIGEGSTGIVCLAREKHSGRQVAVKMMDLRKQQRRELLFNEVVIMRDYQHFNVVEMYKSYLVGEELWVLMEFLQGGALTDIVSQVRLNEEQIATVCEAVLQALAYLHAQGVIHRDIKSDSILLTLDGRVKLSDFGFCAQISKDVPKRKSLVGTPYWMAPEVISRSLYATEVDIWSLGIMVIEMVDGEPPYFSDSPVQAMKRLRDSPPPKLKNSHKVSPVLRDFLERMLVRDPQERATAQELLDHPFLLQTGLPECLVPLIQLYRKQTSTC
Sequence of MAP4K2 (Q12851 whole entry, species assumed): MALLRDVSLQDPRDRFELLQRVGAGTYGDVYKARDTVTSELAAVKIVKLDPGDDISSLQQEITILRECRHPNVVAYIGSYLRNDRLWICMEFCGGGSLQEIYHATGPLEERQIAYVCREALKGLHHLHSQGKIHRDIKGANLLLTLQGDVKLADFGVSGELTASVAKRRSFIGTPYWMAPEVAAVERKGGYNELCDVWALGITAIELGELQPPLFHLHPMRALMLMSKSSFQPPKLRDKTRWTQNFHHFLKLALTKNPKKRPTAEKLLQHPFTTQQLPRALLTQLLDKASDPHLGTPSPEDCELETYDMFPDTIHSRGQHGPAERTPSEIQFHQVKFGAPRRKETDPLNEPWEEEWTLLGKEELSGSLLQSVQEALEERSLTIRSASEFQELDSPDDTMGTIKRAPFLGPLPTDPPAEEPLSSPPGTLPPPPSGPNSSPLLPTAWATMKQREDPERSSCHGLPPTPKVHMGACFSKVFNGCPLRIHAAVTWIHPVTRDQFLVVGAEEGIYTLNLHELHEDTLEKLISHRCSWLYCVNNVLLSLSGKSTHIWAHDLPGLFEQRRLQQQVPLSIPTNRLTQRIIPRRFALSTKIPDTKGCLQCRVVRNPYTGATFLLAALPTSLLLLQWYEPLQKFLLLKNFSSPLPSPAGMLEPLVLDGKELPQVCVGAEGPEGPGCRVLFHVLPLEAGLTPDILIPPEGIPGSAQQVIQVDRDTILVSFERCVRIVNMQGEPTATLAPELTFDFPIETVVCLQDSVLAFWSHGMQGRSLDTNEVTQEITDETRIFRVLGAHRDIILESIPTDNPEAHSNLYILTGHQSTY
T3 sequence (O96017 whole entry, species assumed): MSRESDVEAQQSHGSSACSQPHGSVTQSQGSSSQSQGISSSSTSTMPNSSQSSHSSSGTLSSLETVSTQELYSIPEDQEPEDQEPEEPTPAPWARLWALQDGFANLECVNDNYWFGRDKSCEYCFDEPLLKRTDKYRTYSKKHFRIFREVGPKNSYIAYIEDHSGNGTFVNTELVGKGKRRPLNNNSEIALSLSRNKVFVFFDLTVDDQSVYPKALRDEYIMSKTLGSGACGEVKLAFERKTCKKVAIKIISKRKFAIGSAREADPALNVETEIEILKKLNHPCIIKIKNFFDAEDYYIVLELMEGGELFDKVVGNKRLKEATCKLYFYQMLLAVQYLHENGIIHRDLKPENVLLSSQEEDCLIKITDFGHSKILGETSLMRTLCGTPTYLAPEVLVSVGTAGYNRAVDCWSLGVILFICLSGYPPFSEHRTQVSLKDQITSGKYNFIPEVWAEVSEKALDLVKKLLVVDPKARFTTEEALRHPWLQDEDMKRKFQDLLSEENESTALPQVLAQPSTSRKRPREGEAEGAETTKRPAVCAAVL
T2 sequence (Q9Y6E0 whole entry, species assumed): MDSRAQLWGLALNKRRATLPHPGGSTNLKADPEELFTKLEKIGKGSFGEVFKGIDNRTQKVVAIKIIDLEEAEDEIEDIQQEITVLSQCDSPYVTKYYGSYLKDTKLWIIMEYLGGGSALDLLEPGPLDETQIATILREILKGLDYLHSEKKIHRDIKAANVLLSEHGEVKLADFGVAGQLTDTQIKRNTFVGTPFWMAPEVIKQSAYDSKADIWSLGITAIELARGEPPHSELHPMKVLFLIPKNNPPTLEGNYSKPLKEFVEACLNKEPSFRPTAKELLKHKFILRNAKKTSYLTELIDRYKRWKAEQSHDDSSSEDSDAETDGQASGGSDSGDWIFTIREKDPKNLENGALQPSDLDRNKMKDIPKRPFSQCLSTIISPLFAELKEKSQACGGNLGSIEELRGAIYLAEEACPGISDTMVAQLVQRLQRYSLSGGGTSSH

CCOc1cc2ncc(C#N)c(Nc3ccc(OCc4ccccn4)c(Cl)c3)c2cc1NC(=O)/C=C/CN(C)C [neratinib]
inhibition at 10 µM (PRKACA): 3%
number of kinases with >50% of inhibition [1]: 16
cytokine- and glucolipotoxicity-induced apoptosis in WT islets ([2]; 10 μM, 72 h): reduced cytokine- and glucolipotoxicity-induced apoptosis
mean TUNEL/isolation/% ([2]; WT HG/Pal Nera 10 μM 72 h, mean): 370.621%
mean TUNEL/isolation/% ([2]; WT HG/Pal Nera 10 μM 72 h, single isolations, WT untreated = 100): 424.349% and 323.811% and 387.381% and 346.941%
mean TUNEL/isolation/% ([2]; WT ILIF Nera 10 μM 72 h, mean): 814.399%
IC50 (PAK5): > 20000 nM
IC50 (PAK3): 1500 nM
IC50 (MST3): 5 nM
IC50 (CHEK2): 937 nM
IC50 (AXL): 185 nM
IC50 (PAK6): > 20000 nM
IC50 (HIPK1): > 20000 nM
IC50 (PHK1): 5850 nM
IC50 (MAP4K2): 102 nM
MST1 (% activity) (MST1; neratinib 0.02 nM): 87.31% and 98.20% and 108.86%
MST1 (% activity) (MST1; neratinib 0.06 nM): 99.80% and 103.92%
activity at 60 pM (MST1; neratinib 0.06 nM): 114%
MST1 (% activity) (MST1; neratinib 0.17 nM): 91.02% and 100.09%
activity at 0.00017 µM (MST1; neratinib 0.17 nM): 97.1%
MST1 (% activity) (MST1; neratinib 0.51 nM): 98.60% and 98.84%
activity at 0.00051 µM (MST1; neratinib 0.51 nM): 101%
MST1 (% activity) (MST1; neratinib 1.52 nM): 88.42% and 89.31%
activity at 0.00152 µM (MST1; neratinib 1.52 nM): 103%
MST1 (% activity) (MST1; neratinib 4.57 nM): 67.07% and 80.02%
activity at 0.00457 µM (MST1; neratinib 4.57 nM): 82.2%
MST1 (% activity) (MST1; neratinib 13.72 nM): 46.34% and 78.85% and 63.80%
MST1 (% activity) (MST1; neratinib 41.15 nM): 53.70% and 49.03%
activity at 0.04115 µM (MST1; neratinib 41.15 nM): 48.9%
MST1 (% activity) (MST1; neratinib 123.46 nM): 24.15% and 30.50%
activity at 0.12346 µM (MST1; neratinib 123.46 nM): 30.6%
MST1 (% activity) (MST1; neratinib 370.37 nM): 7.98% and 6.57%
activity at 0.37037 µM (MST1; neratinib 370.37 nM): 11.7%
MST1 (% activity) (MST1; neratinib 1111.11 nM): 8.75% and 1.83%
MST1 (% activity) (MST1; neratinib 3333.33 nM): 4.17% and -2.20% and -1.83%
insulin secretion ([3]; db/db): enhanced insulin secretion
GSIS ([3]; time after glucose injection 0, MEAN): 7.868
GSIS ([3]; time after glucose injection 0, individual mice): 7.6163 and 7.7481 and 3.303 and 9.154 and 8.9273 and 10.458
GSIS ([3]; time after glucose injection 15, MEAN): 11.2434
GSIS ([3]; time after glucose injection 15, individual mice): 17.086 and 7.6058 and 10.292 and 7.1842 and 8.1355 and 17.157
inhibition at 10 µM (PYK2): 41%
